The source of these data is patent publication US20230044943A1, “Pharmaceutical Combinations” (ARRAY BIOPHARMA INC., priority 2016, published 2023).

Each structure is given as a SMILES string.

In series [1] the test system is HT-29 BRAF mutant colorectal cancer (CRC) xenograft tumor model. As to the kind of experiment: Anti-tumor efficacy in HT-29 colon cancer xenograft model (study TRP-377-HT29-XEF). The class given is in vivo, female nude mice (Mus musculus). Particulars: HT-29 xenograft, day 43 after 21 days of treatment; LGX818 20 mg/kg po qd, MEK162 3.5 mg/kg po bid, cetuximab 20 mg/kg ip 2qw. How it is done:
(§1) Animals were weight at dosing day(s) and dose was body weight adjusted, dosing volume was 10 mL/kg. Tumor dimensions and body weights were collected at the time of randomization and twice weekly thereafter for the study duration. The following data were provided after each day of data collection: incidence of mortality, individual and group average body weights, and individual and group average tumor volume.
All data were expressed as mean±standard error of the mean (SEM). […] For all statistical evaluations, the level of significance was set at p<0.05. Significance compared to the vehicle control group is reported unless otherwise stated.

A short description of series [2]: Tolerability (body weight change, adverse events) in study TRP-377-HT29-XEF. The series is classed as in vivo. Particulars: mean ± SEM, day of maximum change in parentheses; HT-29 tumor-bearing nude mice; LGX818 20 mg/kg po qd, MEK162 3.5 mg/kg po bid, cetuximab 20 mg/kg ip 2qw. How it is done: Animal wellbeing and behavior, including grooming and ambulation were monitored twice daily. General health of mice was monitored and mortality recorded daily. Any moribund animals were sacrificed.
as §1
The % change in body was calculated as (BWcurrent−BWinitial)/(BWinitial)×100. Data is presented as percent body weight change from the day of treatment initiation.

Series [3] is described as follows: Stability of test compound dosing formulation. The series is classed as physicochemical. How it is done:
LGX818 was dissolved in 0.5% CMC/0.5% Tween 80.
MEK162 was dissolved in 1% CMC/0.5% Tween 80.

Turning to `COC(=O)N[C@@H](C)CNc1nccc(-c2cn(C(C)C)nc2-c2cc(Cl)cc(NS(C)(=O)=O)c2F)n1` [LGX818, methyl N-[(2S)-1-({4-[3-(5-chloro-2-fluoro-3-methanesulfonamidophenyl)-1-(propan-2-yl)-1H-pyrazol-4-yl]pyrimidin-2-yl}amino)propan-2-yl]carbamate], in series [1], the “T/C (percent tumor volume change treated over control group)” value turned out to be 42%. Also, the “% Maximum BW change (day)” value in series [2] is −1.6 ± 0.98 (day 29) %. Further, the “Stability of dosing formulation” value in series [3] (dissolved in 0.5% CMC/0.5% Tween 80, room temperature) is “stable for at least one week”.

With `Cn1cnc2c(F)c(Nc3ccc(Br)cc3F)c(C(=O)NOCCO)cc21` [MEK162, 6-(4-bromo-2-fluorophenylamino)-7-fluoro-3-methyl-3H-benzoimidazole-5-carboxylic acid (2-hydroxyethoxy)-amide], the “T/C (percent tumor volume change treated over control group)” value in series [1] is listed as 28%. In addition, the “% Maximum BW change (day)” value in series [2] is listed as −4.1 ± 1.02 (day 29) %. Besides, in series [3] (dissolved in 1% CMC/0.5% Tween 80, room temperature), the “Stability of dosing formulation” value is “stable for at least one week”.
